Data on four compounds can be found in publication PMC7827406, “Structure–Activity Relationship (SAR) Study of Spautin-1 to Entail the Discovery of Novel NEK4 Inhibitors” (International Journal of Molecular Sciences, 2021).

Experiment in all cases: biochemical
Common to all, as to design: Eurofins KinaseProfiler full panel at Km ATP, residual kinase activity (%) relative to DMSO

Experiment [1] has as its target T1, IRR(h) (Homo sapiens, UniProt P14616).
T1 construct: gene INSRR
Summed up: (§1)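 Two 10 µM single-concentration screens were run: a competition-binding screen, in which DNA-tagged kinase bound to immobilized ligands was quantified by qPCR, and a radiometric activity panel at Km ATP. Each is expressed as residual kinase activity (%).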

Experiment [2] addresses T2, CK2(h) (Homo sapiens, UniProt P68400).
T2 construct: gene CSNK2A1
Summed up: as §1

Experiment [3] deals with T3, HIPK4(h) (Homo sapiens, UniProt Q8NE63).
T3 sequence (Q8NE63 1-616): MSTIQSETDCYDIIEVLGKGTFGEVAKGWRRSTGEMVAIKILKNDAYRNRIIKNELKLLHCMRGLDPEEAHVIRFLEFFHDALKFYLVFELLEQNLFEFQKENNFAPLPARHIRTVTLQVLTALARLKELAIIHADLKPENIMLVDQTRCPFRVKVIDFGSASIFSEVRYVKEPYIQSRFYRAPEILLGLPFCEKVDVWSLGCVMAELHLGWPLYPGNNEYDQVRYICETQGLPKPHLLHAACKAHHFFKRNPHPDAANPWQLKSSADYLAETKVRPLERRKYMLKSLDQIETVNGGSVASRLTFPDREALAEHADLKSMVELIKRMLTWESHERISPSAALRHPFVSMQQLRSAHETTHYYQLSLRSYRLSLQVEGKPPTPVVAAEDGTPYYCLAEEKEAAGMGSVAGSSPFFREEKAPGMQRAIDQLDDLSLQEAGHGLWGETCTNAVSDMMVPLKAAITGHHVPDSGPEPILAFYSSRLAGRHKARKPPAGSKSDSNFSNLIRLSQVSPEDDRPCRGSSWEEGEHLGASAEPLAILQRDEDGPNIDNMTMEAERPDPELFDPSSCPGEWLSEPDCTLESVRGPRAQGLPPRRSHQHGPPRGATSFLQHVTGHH
Put shortly: as §1

Experiment [4] addresses T4, EphA8(h) (Homo sapiens, UniProt P29322).
T4 sequence (P29322 1-1005): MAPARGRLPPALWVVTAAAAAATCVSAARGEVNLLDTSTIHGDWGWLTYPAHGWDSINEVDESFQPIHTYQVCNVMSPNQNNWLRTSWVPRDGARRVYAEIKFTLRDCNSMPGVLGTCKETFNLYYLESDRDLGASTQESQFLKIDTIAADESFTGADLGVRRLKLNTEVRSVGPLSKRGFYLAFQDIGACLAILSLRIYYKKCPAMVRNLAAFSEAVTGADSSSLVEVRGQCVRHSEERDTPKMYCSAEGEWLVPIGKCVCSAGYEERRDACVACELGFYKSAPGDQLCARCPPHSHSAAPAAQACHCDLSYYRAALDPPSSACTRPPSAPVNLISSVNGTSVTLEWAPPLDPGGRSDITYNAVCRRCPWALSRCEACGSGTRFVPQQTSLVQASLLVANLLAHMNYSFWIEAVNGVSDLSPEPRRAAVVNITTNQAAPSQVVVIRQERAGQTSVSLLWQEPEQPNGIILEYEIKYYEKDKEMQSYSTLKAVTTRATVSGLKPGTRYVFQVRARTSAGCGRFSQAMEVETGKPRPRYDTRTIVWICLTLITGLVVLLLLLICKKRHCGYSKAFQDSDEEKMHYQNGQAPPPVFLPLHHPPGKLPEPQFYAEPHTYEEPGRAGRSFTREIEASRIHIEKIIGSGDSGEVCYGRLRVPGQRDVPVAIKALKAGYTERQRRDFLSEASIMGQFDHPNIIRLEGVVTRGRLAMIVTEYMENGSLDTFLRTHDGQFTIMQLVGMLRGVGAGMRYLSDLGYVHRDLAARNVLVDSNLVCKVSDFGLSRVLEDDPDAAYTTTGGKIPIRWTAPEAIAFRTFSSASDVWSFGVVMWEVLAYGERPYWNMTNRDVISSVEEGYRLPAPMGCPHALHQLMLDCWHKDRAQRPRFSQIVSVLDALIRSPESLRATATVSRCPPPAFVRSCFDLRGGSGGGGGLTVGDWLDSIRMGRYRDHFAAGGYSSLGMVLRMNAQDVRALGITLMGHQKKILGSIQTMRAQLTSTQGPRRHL
Put shortly:
as §1

Experiment [5] addresses T5, OSR1(h) (Homo sapiens, UniProt O95747).
T5 construct: gene OXSR1
Put shortly: as §1

Setting [6] is: read-out: Residual activity (%) 5at.
Setting [7] is: read-out: Residual activity (%) 5ay.
[8] abbreviates: read-out: Residual activity (%) 5as.
Setting [9] is: read-out: Residual activity (%) Spautin-1 5aa.

Molecules are shown by their SMILES. Read-outs that look alike come from different tables or passages of the source.

T1 sequence (P14616 whole entry): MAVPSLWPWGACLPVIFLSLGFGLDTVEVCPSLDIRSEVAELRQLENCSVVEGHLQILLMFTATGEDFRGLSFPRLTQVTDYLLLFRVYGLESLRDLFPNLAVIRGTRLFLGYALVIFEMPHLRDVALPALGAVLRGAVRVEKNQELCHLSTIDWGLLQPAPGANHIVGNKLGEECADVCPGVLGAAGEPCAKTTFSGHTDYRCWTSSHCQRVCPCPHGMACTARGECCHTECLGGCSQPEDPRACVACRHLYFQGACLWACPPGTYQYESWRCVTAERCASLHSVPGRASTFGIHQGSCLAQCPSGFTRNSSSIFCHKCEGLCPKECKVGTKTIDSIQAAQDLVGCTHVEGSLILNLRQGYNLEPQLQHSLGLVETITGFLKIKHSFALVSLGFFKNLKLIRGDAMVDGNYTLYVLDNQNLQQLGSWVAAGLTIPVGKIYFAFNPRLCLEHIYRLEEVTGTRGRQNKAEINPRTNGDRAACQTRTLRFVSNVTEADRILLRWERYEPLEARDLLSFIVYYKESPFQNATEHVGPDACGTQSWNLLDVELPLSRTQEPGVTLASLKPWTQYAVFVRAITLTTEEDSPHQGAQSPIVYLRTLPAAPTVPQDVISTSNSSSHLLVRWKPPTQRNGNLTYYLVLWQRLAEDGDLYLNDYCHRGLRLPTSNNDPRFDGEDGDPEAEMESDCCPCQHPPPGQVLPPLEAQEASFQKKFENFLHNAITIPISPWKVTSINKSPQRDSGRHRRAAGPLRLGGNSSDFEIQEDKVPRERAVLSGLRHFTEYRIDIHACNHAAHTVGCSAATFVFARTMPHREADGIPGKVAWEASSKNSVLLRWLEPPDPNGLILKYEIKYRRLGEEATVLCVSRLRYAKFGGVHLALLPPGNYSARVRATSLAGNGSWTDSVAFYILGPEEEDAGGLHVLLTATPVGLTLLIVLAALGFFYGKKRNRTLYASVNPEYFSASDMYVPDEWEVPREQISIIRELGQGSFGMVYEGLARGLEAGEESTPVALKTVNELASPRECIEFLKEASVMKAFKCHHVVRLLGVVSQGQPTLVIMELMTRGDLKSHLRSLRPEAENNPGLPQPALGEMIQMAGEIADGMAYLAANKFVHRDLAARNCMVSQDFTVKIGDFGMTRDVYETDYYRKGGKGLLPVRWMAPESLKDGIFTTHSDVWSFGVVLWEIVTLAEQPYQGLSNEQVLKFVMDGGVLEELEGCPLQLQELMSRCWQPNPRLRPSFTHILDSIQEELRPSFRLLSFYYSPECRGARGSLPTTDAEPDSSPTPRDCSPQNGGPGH
T5 sequence (O95747 whole entry): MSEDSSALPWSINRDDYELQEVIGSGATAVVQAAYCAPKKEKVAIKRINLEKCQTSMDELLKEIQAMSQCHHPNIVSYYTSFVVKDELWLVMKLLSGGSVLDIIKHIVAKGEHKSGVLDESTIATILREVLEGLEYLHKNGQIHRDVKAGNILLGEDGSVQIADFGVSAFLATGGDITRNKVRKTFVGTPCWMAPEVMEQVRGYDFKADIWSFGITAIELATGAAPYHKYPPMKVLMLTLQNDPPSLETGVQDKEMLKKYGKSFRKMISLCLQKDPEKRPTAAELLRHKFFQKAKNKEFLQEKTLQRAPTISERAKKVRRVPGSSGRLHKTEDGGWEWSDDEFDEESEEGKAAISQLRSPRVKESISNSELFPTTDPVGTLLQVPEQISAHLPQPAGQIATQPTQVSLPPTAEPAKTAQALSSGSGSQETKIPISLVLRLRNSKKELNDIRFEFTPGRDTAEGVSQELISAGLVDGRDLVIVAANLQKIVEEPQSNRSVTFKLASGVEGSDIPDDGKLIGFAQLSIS
T2 sequence (P68400 whole entry): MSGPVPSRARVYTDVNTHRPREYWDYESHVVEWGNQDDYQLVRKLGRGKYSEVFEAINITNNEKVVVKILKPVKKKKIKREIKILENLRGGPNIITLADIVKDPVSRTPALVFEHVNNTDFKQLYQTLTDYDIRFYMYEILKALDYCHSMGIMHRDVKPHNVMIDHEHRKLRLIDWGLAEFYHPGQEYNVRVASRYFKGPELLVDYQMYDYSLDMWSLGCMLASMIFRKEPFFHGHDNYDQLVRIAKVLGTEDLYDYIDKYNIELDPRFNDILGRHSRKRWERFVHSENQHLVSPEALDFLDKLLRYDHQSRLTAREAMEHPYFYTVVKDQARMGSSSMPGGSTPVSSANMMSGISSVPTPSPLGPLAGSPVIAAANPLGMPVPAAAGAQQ
T2 sequence (P67870 whole entry partner): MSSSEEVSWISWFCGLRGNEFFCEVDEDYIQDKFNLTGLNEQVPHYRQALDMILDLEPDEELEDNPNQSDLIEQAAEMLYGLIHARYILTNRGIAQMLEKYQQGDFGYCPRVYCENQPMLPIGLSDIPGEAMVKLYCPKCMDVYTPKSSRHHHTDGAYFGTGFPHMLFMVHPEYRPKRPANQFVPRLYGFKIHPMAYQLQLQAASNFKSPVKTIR

Regarding `Fc1ccc2ncnc(NCCc3ccc(Cl)cc3)c2c1` [5at, N-[2-(4-Chlorophenyl)Ethyl]-6-Fluoro-4-Quinazolinamine], the remaining activity at 10 µM stood at 79% in experiment [1] (setting [6]); 87% in experiment [2] (setting [6]); 93% in experiment [3] (setting [6]); 71% in experiment [4] (setting [6]); 108% in experiment [5] (setting [6]).

On to `COc1ccc2ncnc(Nc3cccc(F)c3)c2c1` [5ay, N-(3-Fluorophenyl)-6-Methoxy-4-Quinazolinamine], for which the remaining activity at 10 µM in experiment [1] (setting [7]) was determined as 99%; in experiment [2] (setting [7]), 75%; in experiment [3] (setting [7]) it was 42%; in experiment [4] (setting [7]), 84%; in experiment [5] (setting [7]), 107%.

`Fc1ccc(CCNc2ncnc3ccc(F)cc23)cc1` [5as, 6-Fluoro-N-[2-(4-Fluorophenyl)Ethyl]-4-Quinazolinamine]: the remaining activity at 10 µM in experiment [1] (setting [8]) stood at 87%; in experiment [2] (setting [8]), 78%; in experiment [3] (setting [8]), 92%; in experiment [4] (setting [8]) it was 88%; in experiment [5] (setting [8]), 95%.

Take `Fc1ccc(CNc2ncnc3ccc(F)cc23)cc1` [5aa, 6-Fluoro-N-(4-fluorobenzyl)-4-Quinazolinamine]: the remaining activity at 10 µM in experiment [1] (setting [9]) amounted to 93%; in experiment [2] (setting [9]), 83%; in experiment [3] (setting [9]), 103%; in experiment [4] (setting [9]) it was 87%; in experiment [5] (setting [9]), 100%.
